The subject of one experiment is KG1a AML cells. The experiment in a line: KG1a subcutaneous xenograft model of AML, tumor volume. The experiment is classed as in vivo, SCID mice. Particulars: FIG. 1, AZD2811 nanoparticles 100 mg/kg iv once weekly, 5-azacytidine 1 mg/kg ip twice-daily for three days, 4 rest days, 3 weekly cycles, start day 1. How it is done: (§1) KG1a: 2×10^7 KG1a AML cells in 50% matrigel were implanted subcutaneously on the left flank of adult female SCID mice. Mice were randomised into groups of 12 and dosing was started for all drugs and all combinations at day 1 (D1) following implant. AZD2811 nanoparticles were dosed at once weekly with a 20-30 s intravenous infusion at 100 mg/kg (100 mg/kg was the maximum tolerated dose in combination 5-azacytidine at 1 mg/kg; 5-azacytidine was dosed twice-daily for three days by the intraperitoneal route, followed by 4 rest days of no dosing). All drugs were given for 3 weekly cycles. Tumors were measured twice weekly by single operators, and all dosing was performed by randomised cage to minimise systematic bias. Mice reached study surival endpoint when tumors reached 1.5 cm^3.

A further experiment relates to HL-60 AML cells. The experiment in a line: HL-60 subcutaneous xenograft model of AML, tumor volume and survival. The experiment is classed as in vivo, SCID mice. Particulars: HL-60 xenograft, FIG. 2; AZD2811 nanoparticles 25 mg/kg iv once weekly; 5-azacytidine 1 mg/kg ip twice-daily for three days, 4 rest days; 3 weekly cycles, start day 7; monotherapy compared with KG1a model. How it is done:
as §1, with “HL-60: 1×10^7 HL-60 AML” for “KG1a: 2×10^7 KG1a AML”, “day 7 respectively” for “day 1 (D1)”, “at either 25” for “at 100”, “study survival” for “study surival”, “1.5 cm^3” for “1.5 cm^3.”

Molecules are shown by their SMILES.

As to `Nc1ncn([C@@H]2O[C@H](CO)[C@@H](O)[C@H]2O)c(=O)n1` [5-azacytidine, 4-amino-1-(β-D-ribofuranosyl)-1,3,5-triazin-2(1H)-one], the results for the “efficacy (reduction in tumor volume over time)” value with KG1a AML cells and with HL-60 AML cells were “modestly efficacious” and “greater efficacy”, respectively.

Values taken from patent US20210315898A1, “COMBINATION THERAPY FOR TREATING CANCER” (AstraZeneca AB, priority 2018, published 2021).
